Assay results reported in ChEMBL document CHEMBL1151100, “Potential cancer chemopreventive and cytotoxic agents from Pulicaria crispa” (1988).
In brackets after ≈: the same amount, converted by molar mass.

What was measured:
KB = assay: Cytotoxicity against human KB cells; type: functional; conditions: read-out: ED50 (the source's name)
[1] = Anticarcinogenic activity in hamster embryonic cells at 25 ug/mL after 30 mins relative to control; type: functional, Cricetinae

C=C1C(=O)O[C@@H]2C[C@@]3(C)C[C@@H](O)C[C@H](C)C3=C[C@H]12
EC50 (KB): 0.33 µg/mL (≈ 1.33 µM)

C=C1C(=O)O[C@@H]2C[C@@]3(C)C[C@@H](OC(C)=O)C[C@H](C)[C@@]34O[C@H]4[C@H]12
EC50 (KB): 0.05 µg/mL (≈ 0.163 µM)

C=C1C(=O)O[C@@H]2C[C@@]3(C)C[C@@H](O)C[C@H](C)[C@@]34O[C@H]4[C@H]12
EC50 (KB): 0.4 µg/mL (≈ 1.51 µM)

COc1c(O)cc2oc(-c3ccc(O)c(O)c3)c(OC)c(=O)c2c1O [AXILLARIN]
Activity [1]: 61.3%
